# How the values were obtained:
# sodium channel = assay: Guanidine influx assay (in vitro); type: cell-based, human or rat; details: known cell line that expresses a sodium channel; read-out: IC50 Activity Level
# Text: This example describes an in vitro assay for testing and profiling test agents against human or rat sodium channels stably expressed in cells of either an endogenous or recombinant origin. The assay is also useful for determining the IC-50 of a sodium channel blocking compound. The assay is based on the guanidine flux assay described by Reddy, N. L., et al., J Med Chem (1998), 41(17):3298-302.
# The guanidine influx assay is a radiotracer flux assay used to determine ion flux activity of sodium channels in a high-throughput microplate-based format. The assay uses ^14C-guanidine hydrochloride in combination with various known sodium channel modulators, to assay the potency of test agents. Potency is determined by an IC-50 calculation. Selectivity is determined by comparing potency of the compound for the channel of interest to its potency against other sodium channels (also called ‘selectivity profiling’).
# Each of the test agents is assayed against cells that express the channels of interest. Voltage gated sodium channels are either TTX sensitive or insensitive. This property is useful when evaluating the activities of a channel of interest when it resides in a mixed population with other sodium channels. The following Table 1 summarizes cell lines useful in screening for a certain channel activity in the presence or absence of TTX.
# Cells expressing the channel of interest are grown according to the supplier or in the case of a recombinant cell in the presence of selective growth media such as G418 (Gibco/Invitrogen). The cells are disassociated from the culture dishes with an enzymatic solution (1×) Trypsin/EDTA (Gibco/Invitrogen) and analyzed for density and viability using haemocytometer (Neubauer). Disassociated cells are washed and resuspended in their culture media then plated into Scintiplates (Beckman Coulter Inc.) (approximately 100,000 cells/well) and incubated at 37° C./5% CO2 for 20-24 hours. After an extensive wash with Low sodium HEPES-buffered saline solution (LNHBSS) (150 mM Choline Chloride, […] (Sigma), 1 mM Calcium Chloride, 5 mM Potassium Chloride, 1 mM Magnesium Chloride, 10 mM Glucose) agents diluted with LNHBSS are added to each well. (Varying concentrations of test agent may be used). The activation/radiolabel mixture contains aconitine (Sigma), and ^14C-guanidine hydrochloride (ARC).
# After loading the cells with test agent and activation/radiolabel mixture, the Scintiplates are incubated at ambient temperature. Following the incubation, the Scintplates are extensively washed with LNHBSS supplemented with guanidine (Sigma). The Scintiplates are dried and then counted using a Wallac MicroBeta TriLux (Perkin-Elmer Life Sciences). The ability of the test agent to block sodium channel activity is determined by comparing the amount of ^14C-guanidine present inside the cells expressing the different sodium channels.
# IC-50 value of a test agent for a specific sodium channel may be determined using the above general method. IC-50 may be determined using a 3, 8, 10, 12 or 16 point curve in duplicate or triplicate with a starting concentration of 1, 5 or 10 μM diluted serially with a final concentration reaching the sub-nanomolar, nanomolar and low micromolar ranges. Typically the mid-point concentration of test agent is set at 1 μM, and sequential concentrations of half dilutions greater or smaller are applied (e.g. 0.5 μM; 5 μM and 0.25 μM; 10 μM and 0.125 μM; 20 μM etc.). The IC-50 curve is calculated using the 4 Parameter Logistic Model or Sigmoidal Dose-Response Model formula (fit=(A+((B−A)/(1+((C/×)̂ D)))).
# The Synthetic Example numbers provided in Table 2 correspond to the Synthetic Examples herein: […]
# L6 (Nav1.4 and 1.5) = type: cell-based, rat
# SK-N-BE2C (NaV1.8) = SK-N-BE2C (NaV1.8) (Homo sapiens, UniProt Q9Y5Y9); type: cell-based
# SK-N-BE2C (NaV1.8), sequence (Q9Y5Y9 whole entry, looked up): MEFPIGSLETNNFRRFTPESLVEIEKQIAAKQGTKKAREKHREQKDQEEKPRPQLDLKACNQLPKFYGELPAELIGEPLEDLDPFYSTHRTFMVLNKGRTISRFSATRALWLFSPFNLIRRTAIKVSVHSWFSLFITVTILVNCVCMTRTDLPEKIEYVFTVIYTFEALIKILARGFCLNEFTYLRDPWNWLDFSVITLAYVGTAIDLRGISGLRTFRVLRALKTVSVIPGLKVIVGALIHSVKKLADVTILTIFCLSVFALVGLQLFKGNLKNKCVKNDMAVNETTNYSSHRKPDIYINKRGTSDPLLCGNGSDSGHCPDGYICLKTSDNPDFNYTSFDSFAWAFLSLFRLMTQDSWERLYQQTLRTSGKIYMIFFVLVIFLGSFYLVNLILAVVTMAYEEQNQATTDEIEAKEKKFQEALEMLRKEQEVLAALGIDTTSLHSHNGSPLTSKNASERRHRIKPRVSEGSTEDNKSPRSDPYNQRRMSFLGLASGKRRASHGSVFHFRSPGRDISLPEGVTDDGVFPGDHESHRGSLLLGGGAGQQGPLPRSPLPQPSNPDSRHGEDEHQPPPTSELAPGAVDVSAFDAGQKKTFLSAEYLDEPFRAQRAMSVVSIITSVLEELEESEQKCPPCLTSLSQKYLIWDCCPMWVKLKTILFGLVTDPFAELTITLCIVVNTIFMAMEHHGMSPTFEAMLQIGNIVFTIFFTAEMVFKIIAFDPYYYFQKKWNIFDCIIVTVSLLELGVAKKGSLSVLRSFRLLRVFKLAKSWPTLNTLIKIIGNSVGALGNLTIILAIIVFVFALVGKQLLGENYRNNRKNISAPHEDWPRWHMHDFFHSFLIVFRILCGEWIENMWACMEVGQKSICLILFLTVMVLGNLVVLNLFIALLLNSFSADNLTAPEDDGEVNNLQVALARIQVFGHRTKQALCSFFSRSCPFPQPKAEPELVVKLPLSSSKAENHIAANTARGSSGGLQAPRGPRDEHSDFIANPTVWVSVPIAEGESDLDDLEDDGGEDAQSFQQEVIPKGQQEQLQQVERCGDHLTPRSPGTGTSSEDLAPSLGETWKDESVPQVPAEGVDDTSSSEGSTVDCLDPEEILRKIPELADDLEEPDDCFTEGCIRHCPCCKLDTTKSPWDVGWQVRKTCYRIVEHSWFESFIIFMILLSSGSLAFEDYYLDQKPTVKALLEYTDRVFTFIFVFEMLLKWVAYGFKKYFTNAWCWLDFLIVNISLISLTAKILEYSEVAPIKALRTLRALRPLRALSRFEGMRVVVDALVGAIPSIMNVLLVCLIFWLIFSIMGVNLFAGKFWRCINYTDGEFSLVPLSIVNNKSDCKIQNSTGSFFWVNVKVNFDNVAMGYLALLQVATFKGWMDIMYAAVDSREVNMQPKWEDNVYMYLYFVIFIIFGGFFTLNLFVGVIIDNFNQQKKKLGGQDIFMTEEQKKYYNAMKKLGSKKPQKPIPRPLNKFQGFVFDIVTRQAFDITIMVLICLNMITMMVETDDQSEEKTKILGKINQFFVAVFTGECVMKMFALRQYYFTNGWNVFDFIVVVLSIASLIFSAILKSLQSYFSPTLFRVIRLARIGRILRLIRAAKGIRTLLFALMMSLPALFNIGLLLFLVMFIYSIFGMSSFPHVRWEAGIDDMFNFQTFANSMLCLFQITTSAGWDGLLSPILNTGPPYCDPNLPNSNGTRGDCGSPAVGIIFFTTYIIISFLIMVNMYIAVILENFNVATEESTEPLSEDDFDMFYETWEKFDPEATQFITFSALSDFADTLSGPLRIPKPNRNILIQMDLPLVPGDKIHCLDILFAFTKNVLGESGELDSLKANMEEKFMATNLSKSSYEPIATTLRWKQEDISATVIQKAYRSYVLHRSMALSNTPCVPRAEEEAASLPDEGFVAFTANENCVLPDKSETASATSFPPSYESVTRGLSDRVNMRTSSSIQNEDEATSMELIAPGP
# PC12 (Nav1.2) = PC12 (Nav1.2) (Rattus norvegicus, UniProt P04775)
# PC12 (Nav1.2), sequence (P04775 whole entry, looked up): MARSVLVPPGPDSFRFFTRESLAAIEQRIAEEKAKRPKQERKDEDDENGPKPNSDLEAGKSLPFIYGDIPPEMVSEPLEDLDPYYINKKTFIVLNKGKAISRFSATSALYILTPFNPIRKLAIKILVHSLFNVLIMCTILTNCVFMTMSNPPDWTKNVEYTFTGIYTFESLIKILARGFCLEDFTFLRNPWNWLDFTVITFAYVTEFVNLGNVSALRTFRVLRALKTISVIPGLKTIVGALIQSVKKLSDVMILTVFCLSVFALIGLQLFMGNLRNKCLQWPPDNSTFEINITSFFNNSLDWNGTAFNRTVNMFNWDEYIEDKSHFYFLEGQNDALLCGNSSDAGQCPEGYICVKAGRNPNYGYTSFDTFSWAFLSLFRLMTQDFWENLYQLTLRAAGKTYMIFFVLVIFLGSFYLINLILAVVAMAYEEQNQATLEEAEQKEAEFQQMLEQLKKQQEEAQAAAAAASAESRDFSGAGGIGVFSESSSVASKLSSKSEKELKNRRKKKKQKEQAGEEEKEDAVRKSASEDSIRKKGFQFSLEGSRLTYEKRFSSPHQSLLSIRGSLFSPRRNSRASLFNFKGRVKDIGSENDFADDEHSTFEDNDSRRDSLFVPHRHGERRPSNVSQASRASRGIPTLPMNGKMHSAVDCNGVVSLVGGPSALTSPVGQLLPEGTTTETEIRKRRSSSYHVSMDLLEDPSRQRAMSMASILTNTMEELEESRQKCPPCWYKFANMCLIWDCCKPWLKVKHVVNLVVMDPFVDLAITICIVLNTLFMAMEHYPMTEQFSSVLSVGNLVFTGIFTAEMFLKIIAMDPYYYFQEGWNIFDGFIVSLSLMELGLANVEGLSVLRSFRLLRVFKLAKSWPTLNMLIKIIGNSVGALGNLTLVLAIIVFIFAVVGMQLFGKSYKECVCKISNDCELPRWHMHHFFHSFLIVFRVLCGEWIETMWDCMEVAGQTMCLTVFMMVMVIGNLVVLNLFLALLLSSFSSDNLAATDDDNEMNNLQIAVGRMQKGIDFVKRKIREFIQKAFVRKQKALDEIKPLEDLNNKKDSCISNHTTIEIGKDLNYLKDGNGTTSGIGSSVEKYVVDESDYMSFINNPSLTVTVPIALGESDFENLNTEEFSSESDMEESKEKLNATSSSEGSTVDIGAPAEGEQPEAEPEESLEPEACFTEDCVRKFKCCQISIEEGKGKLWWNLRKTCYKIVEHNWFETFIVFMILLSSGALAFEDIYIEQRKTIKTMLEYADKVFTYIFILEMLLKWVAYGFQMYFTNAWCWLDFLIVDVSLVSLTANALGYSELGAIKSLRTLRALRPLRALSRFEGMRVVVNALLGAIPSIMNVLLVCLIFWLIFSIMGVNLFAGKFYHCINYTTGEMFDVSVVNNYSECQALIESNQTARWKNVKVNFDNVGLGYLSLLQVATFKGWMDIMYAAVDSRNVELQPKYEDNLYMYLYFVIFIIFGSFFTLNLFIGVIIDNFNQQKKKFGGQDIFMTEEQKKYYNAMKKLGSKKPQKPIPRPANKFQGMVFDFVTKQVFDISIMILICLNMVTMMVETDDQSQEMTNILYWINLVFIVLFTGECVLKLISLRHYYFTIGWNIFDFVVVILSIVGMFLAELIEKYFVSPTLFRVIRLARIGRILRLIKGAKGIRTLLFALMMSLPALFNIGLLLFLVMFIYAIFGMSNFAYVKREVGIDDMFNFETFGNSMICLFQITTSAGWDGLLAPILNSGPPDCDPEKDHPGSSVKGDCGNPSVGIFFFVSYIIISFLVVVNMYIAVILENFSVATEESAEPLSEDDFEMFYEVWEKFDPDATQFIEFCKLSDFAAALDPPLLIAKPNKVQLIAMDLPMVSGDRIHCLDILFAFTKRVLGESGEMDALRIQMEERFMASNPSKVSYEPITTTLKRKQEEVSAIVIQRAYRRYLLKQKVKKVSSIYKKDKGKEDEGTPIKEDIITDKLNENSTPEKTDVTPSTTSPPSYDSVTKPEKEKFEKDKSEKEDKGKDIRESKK
# CHO-K1 (Nav1.4) = type: cell-based, Chinese Hamster
Structure (SMILES),IC50 (sodium channel),melting point,further results
CCCCCN1C(=O)C2(COc3ccncc32)c2ccccc21 (stereo not shown) [Example 1],100 to 1000 nM,,
CCCCCN1C(=O)C2(COc3ccncc32)c2ccccc21 (stereo not shown) [Example 2],≥ 1000 nM,,
CCCCCN1C(=O)C2(COc3cc[nH]c(=O)c32)c2ccccc21 (stereo not shown) [Example 3],≥ 1000 nM,,
COc1ccc2c(n1)C1(CO2)C(=O)N(Cc2ccc(C(F)(F)F)o2)c2cccc(Br)c21 (stereo not shown) [Example 4],10 to 100 nM,,
COc1ccc2c(n1)C1(CO2)C(=O)N(Cc2ccc(C(F)(F)F)o2)c2ccccc21 (stereo not shown) [Example 5],100 to 1000 nM,,
O=C1N(Cc2ccc(C(F)(F)F)o2)c2ccccc2C12COc1cc3c(nc12)OCO3 (stereo not shown) [Example 8],1 to 10 nM,,
COc1ccc2c(n1)C1(CO2)C(=O)N(Cc2ccc(C(F)(F)F)o2)c2ccc(F)cc21 (stereo not shown) [Example 10],≥ 1000 nM,,
COc1ccc2c(n1)C1(CO2)C(=O)N(Cc2ccc(C(F)(F)F)o2)c2cccc(Cl)c21 (stereo not shown) [Example 11],100 to 1000 nM,,
COc1ccc2c(n1)C1(CO2)C(=O)Nc2cccc(Br)c21 (stereo not shown) [Example 12],100 to 1000 nM,,
COc1ccc2c(n1)C1(CO2)C(=O)Nc2ccccc21 (stereo not shown) [Example 13],≥ 1000 nM,199 to 200 °C,
COc1ccc2c(n1)C1(CO2)C(=O)N(Cc2ccc(Cl)s2)c2ccccc21 (stereo not shown) [Example 15],10 to 100 nM,,
COc1ccc2c(n1)C1(CO2)C(=O)N(Cc2csc(C(C)C)n2)c2ccccc21 (stereo not shown) [Example 16],10 to 100 nM,136 to 138 °C,
COc1ccc2c(n1)C1(CO2)C(=O)N(Cc2ccccn2)c2ccccc21 (stereo not shown) [Example 17],100 to 1000 nM,,
COc1ccc2c(n1)C1(CO2)C(=O)N(CC(=O)Nc2ccccc2F)c2ccccc21 (stereo not shown) [Example 18],100 to 1000 nM,,
COc1ccc2c(n1)C1(CO2)C(=O)N(Cc2ncc(Cl)n2C)c2ccccc21 (stereo not shown) [Example 19],100 to 1000 nM,169 to 171 °C,
COc1ccc2c(n1)C1(CO2)C(=O)N(CC2CCN(C)CC2)c2ccccc21 (stereo not shown) [Example 22],≥ 1000 nM,58 to 62 °C,
COc1cc2c(cn1)OCC21C(=O)N(Cc2ccc(C(F)(F)F)o2)c2ccccc21 (stereo not shown) [Example 23],1 to 10 nM,,
COc1cc2c(cn1)OCC21C(=O)N(C(c2ccccc2)c2ccccc2)c2ccccc21 (stereo not shown) [Example 24],≥ 1000 nM,,
COc1cc2c(cn1)OCC21C(=O)Nc2ccccc21 (stereo not shown) [Example 25],100 to 1000 nM,,
COc1cc2c(cn1)OCC21C(=O)N(CC2CCOCC2)c2ccccc21 (stereo not shown) [Example 26],100 to 1000 nM,,
COc1cc2c(cn1)OCC21C(=O)N(C[C@@H]2CCCO2)c2ccccc21 (stereo partly shown) [Example 27],10 to 100 nM,,
COc1cc2c(cn1)OCC21C(=O)N(C[C@H]2CCCO2)c2ccccc21 (stereo partly shown) [Example 28],10 to 100 nM,,
"COc1ccc2c(n1)C1(CO2)C(=O)N(Cc2ccc(C(F)(F)F)o2)c2ccccc21 (stereo not shown) [Synthetic Example 5, 5-methoxy-1′-{[5-(trifluoromethyl)-2-furyl]methyl}spiro[furo[3,2-b]pyridine-3,3′-indol]-2′(1′H)-one]",,145 to 147 °C,
"O=C1N(Cc2ccc(C(F)(F)F)o2)c2ccccc2C12COc1ccc(=O)[nH]c12 (stereo not shown) [Synthetic Example 7, 1′-{[5-(trifluoromethyl)-2-furyl]methyl}spiro[furo[3,2-b]pyridine-3,3′-indole]-2′,5(1′H,4H)-dione]",,175 to 177 °C,
"O=C1N(Cc2ccc(C(F)(F)F)o2)c2ccccc2C12COc1cc3c(nc12)OCO3 (stereo not shown) [Synthetic Example 8, 1′-{[5-(trifluoromethyl)-2-furyl]methyl}spiro[1,3-dioxolo[4,5-b]furo[2,3-e]pyridine-5,3′-indol]-2′(1′H)-one]",,175 to 177 °C,
"COc1ccc2c(n1)C1(CO2)C(=O)N(Cc2ccc(C(F)(F)F)o2)c2ccc(F)cc21 (stereo not shown) [Synthetic Example 10, 5′-fluoro-5-methoxy-1′-{[5-(trifluoromethyl)-2-furyl]methyl}spiro[furo[3,2-b]pyridine-3,3′-indol]-2′(1′H)-one]",,158 to 160 °C,
"COc1ccc2c(n1)C1(CO2)C(=O)Nc2cccc(Br)c21 (stereo not shown) [Synthetic Example 12, 4′-bromo-5-methoxyspiro[furo[3,2-b]pyridine-3,3′-indol]-2′(1′H)-one]",,265 to 268 °C,
"COc1cc2c(cn1)OCC21C(=O)Nc2ccccc21 (stereo not shown) [Synthetic Example 25, 5-methoxyspiro[furo[2,3-c]pyridine-3,3′-indol]-2′(1′H)-one]",,231 to 232 °C,
"COc1cc2c(cn1)OCC21C(=O)N(CC2CCOCC2)c2ccccc21 (stereo not shown) [Synthetic Example 26, 5-methoxy-1′-(tetrahydro-2H-pyran-4-ylmethyl)spiro[furo[2,3-c]pyridine-3,3′-indol]-2′(1′H)-one]",,84 to 85 °C,
"NC1=N[C@H](O)[C@H]2[C@H]3O[C@]4(O)O[C@@H]([C@@H](O)[C@@]2(N1)[C@@H]4O)[C@]3(O)CO [TTX, tetrodotoxin]",,,block of [14C] guanidine influx (L6 (Nav1.4 and 1.5)): partially blocked by TTX (Nav1.5; block of [14C] guanidine influx (SK-N-BE2C (NaV1.8)): TTX partially blocked influx; block of [14C] guanidine influx (PC12 (Nav1.2)): Guanidine influx was completely; block of [14C] guanidine influx (CHO-K1 (Nav1.4)): Guanidine influx was completely
